Source: ChEMBL document CHEMBL1201862, “PubChem BioAssay data set” (2004)
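Values below derive from 48-hour exposures of cells grown in 96-well plates, with endpoints linearly interpolated between the two concentrations bracketing the appropriate inhibition level. At the GI50, growth is halved.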 The source made the active and inactive calls. Rule as the data show it: active = GI50 up to about 1.1 µM and inactive = higher.

Columns and labels:
Assay in all cases: NCI tumour cell line growth inhibition, 48 h
[1] = test system: 786-0
[2] = test system: A498
[3] = test system: A549
[4] = test system: ACHN
[5] = test system: BT-549
[6] = test system: CAKI-1
[7] = test system: CCRF-CEM
[8] = test system: COLO 205
[9] = test system: DU-145
[10] = test system: EKVX
[11] = test system: HCC 2998
[12] = test system: HCT-116
[13] = test system: HCT-15
[14] = test system: HL-60
[15] = test system: HOP-62
[16] = test system: HOP-92
[17] = test system: HT-29
[18] = test system: Hs-578T
[19] = test system: IGROV-1
[20] = test system: K562
[21] = test system: KM12
[22] = test system: LOX IMVI
[23] = test system: M14
[24] = test system: MCF7
[25] = test system: MDA-MB-231
[26] = test system: MDA-MB-435
[27] = test system: MDA-N
[28] = test system: MOLT-4
[29] = test system: Malme-3M
[30] = test system: NCI-H226
[31] = test system: NCI-H23
[32] = test system: NCI-H460
[33] = test system: NCI-H522
[34] = test system: NCI/ADR-RES
[35] = test system: OVCAR-3
[36] = test system: OVCAR-4
[37] = test system: OVCAR-5
[38] = test system: OVCAR-8
[39] = test system: PC-3
[40] = test system: RPMI-8226
[41] = test system: RXF 393
[42] = test system: SF-268
[43] = test system: SF-295
[44] = test system: SF-539
[45] = test system: SK-MEL-28
[46] = test system: SK-MEL-2
[47] = test system: SK-MEL-5
[48] = test system: SK-OV-3
[49] = test system: SN12C
[50] = test system: SNB-19
[51] = test system: SNB-75
[52] = test system: SR
[53] = test system: SW-620
[54] = test system: T47D
[55] = test system: TK-10
[56] = test system: U-251
[57] = test system: UACC-257
[58] = test system: UACC-62
[59] = test system: UO-31

## Clc1cccc(Cl)c1/C=N/C12CC3CC(CC(C3)C1)C2
[1]
  GI50: > 10 µM (inactive)
[2]
  GI50: > 10 µM (inactive)
[3]
  GI50: > 10 µM (inactive)
[4]
  GI50: > 10 µM (inactive)
[5]
  GI50: > 10 µM (inactive)
[6]
  GI50: > 10 µM (inactive)
[7]
  GI50: > 10 µM (inactive)
[8]
  GI50: > 10 µM (inactive)
[9]
  GI50: > 10 µM (inactive)
[10]
  GI50: > 10 µM (inactive)
[11]
  GI50: > 10 µM (inactive)
[12]
  GI50: > 10 µM (inactive)
[13]
  GI50: > 10 µM
[14]
  GI50: > 10 µM (inactive)
[15]
  GI50: > 10 µM (inactive)
[16]
  GI50: > 10 µM (inactive)
[17]
  GI50: > 10 µM (inactive)
[18]
  GI50: > 10 µM (inactive)
[19]
  GI50: > 10 µM (inactive)
[20]
  GI50: > 10 µM (inactive)
[21]
  GI50: > 10 µM (inactive)
[22]
  GI50: > 10 µM (inactive)
[23]
  GI50: > 10 µM (inactive)
[24]
  GI50: > 10 µM (inactive)
[25]
  GI50: > 10 µM (inactive)
[26]
  GI50: > 10 µM (inactive)
[27]
  GI50: > 10 µM (inactive)
[28]
  GI50: > 10 µM (inactive)
[29]
  GI50: > 10 µM (inactive)
[30]
  GI50: > 10 µM (inactive)
[31]
  GI50: > 10 µM (inactive)
[32]
  GI50: > 10 µM (inactive)
[33]
  GI50: > 10 µM (inactive)
[34]
  GI50: > 10 µM (inactive)
[35]
  GI50: > 10 µM (inactive)
[36]
  GI50: > 10 µM (inactive)
[37]
  GI50: > 10 µM (inactive)
[38]
  GI50: > 10 µM (inactive)
[39]
  GI50: > 10 µM (inactive)
[40]
  GI50: > 10 µM (inactive)
[41]
  GI50: > 10 µM (inactive)
[42]
  GI50: > 10 µM (inactive)
[43]
  GI50: > 10 µM (inactive)
[44]
  GI50: > 10 µM (inactive)
[45]
  GI50: > 10 µM (inactive)
[46]
  GI50: > 10 µM (inactive)
[47]
  GI50: > 10 µM (inactive)
[48]
  GI50: > 10 µM (inactive)
[49]
  GI50: > 10 µM (inactive)
[50]
  GI50: > 10 µM (inactive)
[51]
  GI50: 6.47 µM (inactive)
[52]
  GI50: 3.26 µM (inactive)
[53]
  GI50: > 10 µM (inactive)
[54]
  GI50: > 10 µM (inactive)
[55]
  GI50: > 10 µM (inactive)
[56]
  GI50: > 10 µM (inactive)
[57]
  GI50: > 10 µM (inactive)
[58]
  GI50: > 10 µM (inactive)

## C=C1C(=O)OC2CC3(CO3)C3C(O)C(O)CC3(C)CC12 (centres undefined)
[1]
  GI50: 76.9 µM (inactive)
[2]
  GI50: 28.4 µM (inactive)
[3]
  GI50: 40.9 µM (inactive)
[4]
  GI50: 19.7 µM (inactive)
[5]
  GI50: 18.1 µM (inactive)
[6]
  GI50: 20.3 µM (inactive)
[7]
  GI50: 15.2 µM (inactive)
[8]
  GI50: 29.9 µM (inactive)
[9]
  GI50: 34.4 µM (inactive)
[10]
  GI50: 18.3 µM (inactive)
[11]
  GI50: 17.3 µM (inactive)
[12]
  GI50: 18.2 µM (inactive)
[13]
  GI50: 17 µM
[14]
  GI50: 12.7 µM (inactive)
[15]
  GI50: 61.9 µM (inactive)
[16]
  GI50: 27.6 µM (inactive)
[17]
  GI50: 30.5 µM (inactive)
[18]
  GI50: 81.3 µM (inactive)
[19]
  GI50: 35.6 µM (inactive)
[20]
  GI50: 27.5 µM (inactive)
[21]
  GI50: 32.9 µM (inactive)
[22]
  GI50: 8.24 µM (inactive)
[23]
  GI50: 16.4 µM (inactive)
[24]
  GI50: 21 µM (inactive)
[25]
  GI50: 28.6 µM (inactive)
[26]
  GI50: 25.4 µM (inactive)
[27]
  GI50: 23.4 µM (inactive)
[28]
  GI50: 17.8 µM (inactive)
[29]
  GI50: 18.2 µM (inactive)
[30]
  GI50: > 100 µM (inactive)
[31]
  GI50: 22.3 µM (inactive)
[32]
  GI50: 34.9 µM (inactive)
[33]
  GI50: 12.3 µM (inactive)
[34]
  GI50: 38.8 µM (inactive)
[35]
  GI50: 21.9 µM (inactive)
[36]
  GI50: 76.6 µM (inactive)
[37]
  GI50: 27.7 µM (inactive)
[38]
  GI50: 22.3 µM (inactive)
[39]
  GI50: 45.8 µM (inactive)
[40]
  GI50: 30.9 µM (inactive)
[41]
  GI50: 16.7 µM (inactive)
[42]
  GI50: 40.3 µM (inactive)
[43]
  GI50: > 100 µM (inactive)
[44]
  GI50: 19.1 µM (inactive)
[45]
  GI50: 17.4 µM (inactive)
[46]
  GI50: 16 µM (inactive)
[47]
  GI50: 19 µM (inactive)
[48]
  GI50: > 100 µM (inactive)
[49]
  GI50: 24.4 µM (inactive)
[50]
  GI50: > 100 µM (inactive)
[51]
  GI50: 49.8 µM (inactive)
[52]
  GI50: 20.8 µM (inactive)
[53]
  GI50: 16.6 µM (inactive)
[54]
  GI50: 30.9 µM (inactive)
[55]
  GI50: 35.6 µM (inactive)
[56]
  GI50: 43 µM (inactive)
[57]
  GI50: 39.2 µM (inactive)
[58]
  GI50: 16.6 µM (inactive)

## CC(=O)OC/C=C/Cn1nc(Br)c(=O)[nH]c1=O
[1]
  GI50: > 100 µM (inactive)
[2]
  GI50: > 100 µM (inactive)
[3]
  GI50: > 100 µM (inactive)
[4]
  GI50: > 100 µM (inactive)
[5]
  GI50: > 100 µM (inactive)
[6]
  GI50: > 100 µM (inactive)
[7]
  GI50: > 100 µM (inactive)
[8]
  GI50: > 100 µM (inactive)
[9]
  GI50: > 100 µM (inactive)
[10]
  GI50: > 100 µM (inactive)
[11]
  GI50: > 100 µM (inactive)
[12]
  GI50: > 100 µM (inactive)
[13]
  GI50: > 100 µM
[14]
  GI50: > 100 µM (inactive)
[15]
  GI50: > 100 µM (inactive)
[16]
  GI50: > 100 µM (inactive)
[17]
  GI50: > 100 µM (inactive)
[18]
  GI50: > 100 µM (inactive)
[19]
  GI50: > 100 µM (inactive)
[20]
  GI50: > 100 µM (inactive)
[21]
  GI50: > 100 µM (inactive)
[22]
  GI50: > 100 µM (inactive)
[23]
  GI50: > 100 µM (inactive)
[24]
  GI50: > 100 µM (inactive)
[25]
  GI50: > 100 µM (inactive)
[26]
  GI50: > 100 µM (inactive)
[27]
  GI50: > 100 µM (inactive)
[28]
  GI50: > 100 µM (inactive)
[29]
  GI50: > 100 µM (inactive)
[30]
  GI50: > 100 µM (inactive)
[31]
  GI50: > 100 µM (inactive)
[32]
  GI50: > 100 µM (inactive)
[33]
  GI50: > 100 µM (inactive)
[34]
  GI50: > 100 µM (inactive)
[35]
  GI50: > 100 µM (inactive)
[36]
  GI50: > 100 µM (inactive)
[37]
  GI50: > 100 µM (inactive)
[38]
  GI50: > 100 µM (inactive)
[39]
  GI50: > 100 µM (inactive)
[40]
  GI50: > 100 µM (inactive)
[41]
  GI50: > 100 µM (inactive)
[42]
  GI50: > 100 µM (inactive)
[43]
  GI50: > 100 µM (inactive)
[44]
  GI50: > 100 µM (inactive)
[45]
  GI50: > 100 µM (inactive)
[46]
  GI50: > 100 µM (inactive)
[47]
  GI50: > 100 µM (inactive)
[49]
  GI50: > 100 µM (inactive)
[50]
  GI50: > 100 µM (inactive)
[51]
  GI50: > 100 µM (inactive)
[52]
  GI50: > 100 µM (inactive)
[53]
  GI50: > 100 µM (inactive)
[54]
  GI50: > 100 µM (inactive)
[55]
  GI50: > 100 µM (inactive)
[56]
  GI50: > 100 µM (inactive)
[57]
  GI50: > 100 µM (inactive)
[58]
  GI50: > 100 µM (inactive)
[59]
  GI50: > 100 µM (inactive)
